Data: PMC12392461, “Beyond Estrogenicity: A Comparative Assessment of Bisphenol A and Its Alternatives in In Vitro Assays Questions Safety of Replacements” (Environmental Science & Technology, 2025)
Like-named read-outs stand apart in the source and are kept apart here.

Legend:
[1] = system: HEK293H, HEK293T, H4IIe, MCF7 and SH-SY5Y cells; details: for cytotoxicity,median REPBPA,IC10: median IC10 relative to BPA; for IC10,Median (M): median cytotoxicity of all cell lines; for IC10, median: median cytotoxicity over all cell lines
Description: Cell culture conditions and bioassay protocols including response detection are provided in Text S2.1–2.4 and Table S3. − Cell viability was determined from cell confluency using an IncuCyte S3 Live-Cell Analysis System (Sartorius AG, Essen, Germany) before and after exposure, except for SH-SY5Y cells (live–dead staining with Nuclear Green LcS1 and propidium iodide, Abcam, UK). For metabolic activation experiments, cell viability was assessed using the ToxBLAzer DualScreen Kit (Thermo Fisher Scientific) to capture the remaining toxicity in ERα-UAS-bla GripTite after treatment with the aCYP catalyst (details in Text S2.4).
For ARE, the concentration that triggered an induction ratio of 1.5 (ECIR1.5) was used as the benchmark value, as detailed in Text S2.5. IC10 values also served as a threshold for data analysis in all assays; only concentrations below IC10 were considered when deriving EC10 or ECIR1.5.
TR indicates whether the cytotoxicity is triggered by specific toxicity mechanisms (TR ≥ 10) or not (0.1< TR< 10). 3 TR=IC10,baseline/IC10 We measured the cytotoxicity of BPA and its alternatives in HEK293H (PPARγ), HEK293T (ERα), H4IIe (AhR CALUX), MCF7 (ARE/MMP), and differentiated SH-SY5Y cells (Table S6). […]
medium, supplemented with 2% B-27 Supplement and 2 mM GlutaMAX Supplement. SH - SY5Y cells were differentiated with 10 µM all-trans retinoic acid prior to the assay.
S2.2: Cell Seeding and Incubation. For all bioassays, cell suspensions in the respective assay medium were dispensed into each well of 384-well plates using a MultiFlo Dispenser (Biotek, (now Agilent), Winooski, VT, U.S.). After seeding, the plates were incubated at 37° C and 5% CO₂ for […]. The final cell densities and plate types were as follows: Black poly-D-lysine […]
6500 cells/well, ERα: 5000 cells/well. White 384-well plates with a clear bottom (Product No.
NYC, U.S.) for AhR: 3250 cells/well. Black Collagen I coated plates were used (Product No.
S2.3: Chemical Dosing and Assay Analysis Procedures. The dosing procedure and high-throughput assay workflow have been described in detail before. 9 The dosing concentrations […]
Stock solutions were then either added directly to the respective cell culture medium or evaporated under nitrogen, followed by replenishment with fresh medium. The final solvent content in each well was kept below 1% for methanol, 0% for acetonitrile.
Dosing plates were prepared as 11 -step serial dilutions using a Hamilton Microlab Star robotic system (Hamilton, Bonaduz, Switzerland), and chemicals were dosed in duplicates by transferring 10 μL twice from the dosing plates to the cell plates . After quantifying cell confluency as described in S2. 4., the exposed cells were incubated at 37° C and 5% CO₂ for an additional 24 h. All chemicals were tested in all assays with at least three independent […]
S2.4: Cell Viability Measurement s and bioanalytical protocols . The confluency as a measure of cell viability was determined with an IncuCyte S3 Live -Cell Analysis System (Sartorius AG, Essen, Germany). With this method the confluency of cells in a microscopy image are normalized to control wells without cells and compared before and after 24 hours of exposure.
This method has been described previously 13. Cell viability of SH-SY5Y cells was measured […]
propidium iodide (PI, Abcam, Cambridge, U.K.).14 Nuclear Green LCS1 is a membrane-permeable dye that stains the nuclei of all cells, whereas PI only enters cells with compromised membrane integrity (non-viable cells). After staining, live cells show green nuclei without red fluorescence, while dead cells display both green and red nuclear fluorescence due to PI […]
intercalation. Cell viability was calculated as the proportion of green-only nuclei relative to the […]
For experiments with the preceding aCYP activation, ERα cell viability was additionally calculated from the readout of the ToxBLAzer reagent. The ToxBLAzer assay was conducted following the manufacturer's instructions (Thermo Fisher, Waltham, MA, U.S.).13 Fluorescence

ERα [2] = details: cited from earlier work
PPARγ = system: PPARγ; set-up: method as in Crosthwait et al. 2025; Sun et al. 2025; details: ref Crosthwait et al. 2025; Sun et al. 2025; cited from earlier work
Tox21 assays [3] = test: Re-evaluated Tox21 data (Adamovsky et al.), REPBPA and SRbaseline; details: for SRbaseline: Specificity Ratio;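 as to all read-outs here: published Tox21 results reanalysed with a revised model predicting baseline toxicity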
Description: We also reanalyzed the Tox21 data of Adamovsky et al. with the updated baseline toxicity prediction model (Table S2).

Tox21 assays [4] = details: cited from earlier work
[5] = 15 min
ERα [6] = test: Literature ERα reporter gene assays (comparison); format: cell-based; details: for EC10, approx.: in M (unit assumed)
Description: S5.4: Comparison with literature data for ERα reporter gene assays
To improve data comparability with our own results we converted reported EC₅₀ to EC₁₀ by dividing by 9, which is the ratio for log-logistic concentration-response curves with a hillslope of 1 (Figure S9a). Additionally, REPBPA values were calculated to enable a more consistent evaluation. Methodological differences between studies must be considered, as Reiniger et al.24 used the YES assay, while Goksøyr et al.25 applied ERα from fish (Figure S9b).
Cyan symbols highlight the ER-UAS-bla GripTite (this study and Tox21GenBLA).
(1 picture or pasted object on this page, not shown here)

[7] = TOX21_PPARg_BLA_antagonist_ratio
[8] = Tox21Luc, ref Adamovsky et al. 2024
[9] = TOX21_CAR_Antagonist, re-evaluated Tox21 data, ref Adamovsky et al 2024
[10] = TOX21_PPARg_BLA_antagonist_ratio, re-evaluated Tox21 data, ref Adamovsky et al 2024
[11] = Tox21BLA, ref Adamovsky et al. 2024
[12] = ATG_PPARg_TRANS_up, re-evaluated Tox21 data, ref Adamovsky et al 2024
[13] = ATG_hPPARg_XSP2_up, re-evaluated Tox21 data, ref Adamovsky et al 2024

CC(C)(c1ccc(O)c(-c2ccccc2)c1)c1ccc(O)c(-c2ccccc2)c1 [BPPH, 2,2-Bis(2-hydroxy-5-biphenylyl)propane]
cytotoxicity,median REPBPA,IC10 [1]: 8.72
IC10,Median (M) [1]: 8.02 × 10^–6 M
IC10, median [1]: 8.02 µM
Efficacy % (ERα [2]; ref Pelch et al 2019): 27.00%

O=S(=O)(c1ccc(O)cc1)c1ccccc1O [2,4-BPS, 2,4'-Dihydroxydiphenyl sulfone]
PPARγ transactivation reported in the literature (PPARγ): No agonism was detected

Cc1cc(Cc2cc(C)c(O)c(C)c2)cc(C)c1O [TMBPF, Bis(3,5-dimethyl-4-hydroxyphenyl)methane]
cytotoxicity,median REPBPA,IC10 [1]: 5.51
IC10,Median (M) [1]: 1.27 × 10^–5 M
IC10, median [1]: 12.7 µM

CC1(C)[C@H](O)C(C)(C)[C@H]1O [t-TMCD, trans-2,2,4,4-Tetramethyl-1,3-cyclobutanediol]
cytotoxicity,median REPBPA,IC10 [1]: 0.00783
IC10,Median (M) [1]: 8.94 × 10^–3 M
IC10, median [1]: 8940 µM

Oc1ccc(C2(c3ccc(O)cc3)CCCCC2)cc1 [BPZ, 1,1'-Bis(4-hydroxyphenyl)cyclohexane]
REPBPA (Tox21 assays [3]; TOX21_CAR_Antagonist, Relative Effect Potency): 1.19
SRbaseline (Tox21 assays [3]; TOX21_CAR_Antagonist): 59.87
SRbaseline (Tox21 assays [3]; [7]): 14.87
REPBPA (Tox21 assays [3]; [8]): 2.90E+00
cytotoxicity,median REPBPA,IC10 [1]: 1.33
IC10,Median (M) [1]: 5.28 × 10^–5 M
IC10, median [1]: 52.8 µM
EC10 (Tox21 assays [4]; [9]): 4.58e-07 M
EC10 (Tox21 assays [4]; [10]): 1.84e-06 M
EC10 (Tox21 assays [4]; [8]): 2.65E-08

CC(C)c1cc(C(C)(C)c2ccc(O)c(C(C)C)c2)ccc1O [BPG, 2,2-Bis(4-hydroxy-3-isopropylphenyl)propane]
cytotoxicity,median REPBPA,IC10 [1]: 8.93
IC10,Median (M) [1]: 7.84 × 10^–6 M
IC10, median [1]: 7.84 µM

CC(C)CC(C)(c1ccc(O)cc1)c1ccc(O)cc1 [BP-MIBK, 4,4'-(1,3-Dimethylbutylidene)diphenol]
% Loss [5]: 10%

CC1(C)C(O)C(C)(C)C1O (racemic) [r-TMCD, 2,2,4,4-Tetramethyl-1,3-cyclobutanediol (racemate)]
cytotoxicity,median REPBPA,IC10 [1]: 0.00844
IC10,Median (M) [1]: 8.29 × 10^–3 M
IC10, median [1]: 8290 µM

Cc1ccc(S(=O)(=O)NC(=O)Nc2cccc(OS(=O)(=O)c3ccc(C)cc3)c2)cc1 [Pergafast, N-(p-toluenesulfonyl)-N'-(3-(p-toluenesulfonyloxy)phenyl)urea]
PPARγ transactivation reported in the literature (PPARγ): weaker effects
cytotoxicity,median REPBPA,IC10 [1]: 3.67
IC10,Median (M) [1]: 1.91 × 10^–5 M
IC10, median [1]: 19.1 µM

CC(c1ccc(O)cc1)c1ccc(O)cc1 [BPE, 4,4′-Ethylidenbisphenol]
% Loss [5]: 21%
REPBPA (Tox21 assays [3]; TOX21_AR_LUC_MDAKB2_Antagonist_0,5nM_R1881, Relative Effect Potency): 1.49
SRbaseline (Tox21 assays [3]; TOX21_AR_LUC_MDAKB2_Antagonist_0,5nM_R1881): 76.62
REPBPA (Tox21 assays [3]; TOX21_CAR_Agonist, Relative Effect Potency): 0.13
SRbaseline (Tox21 assays [3]; TOX21_CAR_Agonist): 11.95
SRbaseline (Tox21 assays [3]; [7]): 12.24
REPBPA (Tox21 assays [3]; [11]): 4.35E-01
REPBPA (Tox21 assays [3]; [8]): 6.37E-01
cytotoxicity,median REPBPA,IC10 [1]: 0.88
IC10,Median (M) [1]: 7.91 × 10^–5 M
IC10, median [1]: 79.1 µM
EC10 (Tox21 assays [4]; TOX21_AR_LUC_MDAKB2_Antagonist_0,5nM_R1881, re-evaluated Tox21 data, ref Adamovsky et al 2024): 1.63e-06 M
EC10 (Tox21 assays [4]; TOX21_CAR_Agonist, re-evaluated Tox21 data, ref Adamovsky et al 2024): 1.04e-05 M
EC10 (Tox21 assays [4]; [10]): 1.02e-05 M
EC10 (Tox21 assays [4]; [11]): 1.36E-06
EC10 (Tox21 assays [4]; [8]): 3.57E-08

CC(C)(c1cc(Cl)c(O)c(Cl)c1)c1cc(Cl)c(O)c(Cl)c1 [TCBPA, 2,2',6,6'-Tetrachlorobisphenol A]
REPBPA (Tox21 assays [3]; ATG_PPARg_TRANS_up, Relative Effect Potency): 6.78
SRbaseline (Tox21 assays [3]; ATG_PPARg_TRANS_up): 37.70
REPBPA (Tox21 assays [3]; ATG_hPPARg_XSP2_up, Relative Effect Potency): 3.23
SRbaseline (Tox21 assays [3]; ATG_hPPARg_XSP2_up): 22.19
SRbaseline (Tox21 assays [3]; [7]): 22.07
cytotoxicity,median REPBPA,IC10 [1]: 0.89
IC10,Median (M) [1]: 7.84 × 10^–5 M
IC10, median [1]: 78.4 µM
EC10 (Tox21 assays [4]; [12]): 2.35e-07 M
EC10 (Tox21 assays [4]; [13]): 4e-07 M
EC10 (Tox21 assays [4]; [10]): 4.02e-07 M

CC(C)(c1ccc(OCC2CO2)cc1)c1ccc(OCC2CO2)cc1 (stereo not drawn) [BADGE, Bisphenol A diglycidyl ether]
% Loss [5]: -5%
Cparent-Ratio Mean [5]: 1.05
Cparent-Ratio Rep.1 [5]: 1.07
Cparent-Ratio Rep.1 % [5]: 107.02%
Cparent-Ratio Rep.2 [5]: 1.03
Cparent-Ratio Rep.2 % [5]: 103.48%
cytotoxicity,median REPBPA,IC10 [1]: 1.82
IC10,Median (M) [1]: 3.85 × 10^–5 M
IC10, median [1]: 38.5 µM

CC(C)(c1cc(Br)c(O)c(Br)c1)c1cc(Br)c(O)c(Br)c1 [TBBPA, 3,3',5,5'-Tetrabromobisphenol A]
EC10 (Tox21 assays [4]; [12]): 4.64e-07 M
EC10 (Tox21 assays [4]; ATG_hPPARg_XSP1_up, re-evaluated Tox21 data, ref Adamovsky et al 2024): 5.02e-07 M
EC10 (Tox21 assays [4]; [13]): 2e-07 M
EC10 (Tox21 assays [4]; [10]): 6.2e-08 M

CC(c1ccccc1)(c1ccc(O)cc1)c1ccc(O)cc1 [BPAP, 4,4'-(1-Phenylethylidene)bisphenol]
reduction of C parent after aCYP oxidation [5]: 25%
EC10, approx. (ERα [6]; approximated from literature EC50, ref Reiniger et Oehlmann 2024): ~1.04E-07
EC10, approx. (ERα [6]; approximated from literature values, ref Kojima et al 2019): ~1.45E-07
REPBPA (ERα [6]; relative estrogenic potency vs BPA, ref Kojima et al 2019): 2.52E-01
REPBPA (Tox21 assays [3]; ATG_NRF2_ARE_CIS_up, Relative Effect Potency): 3.88
SRbaseline (Tox21 assays [3]; ATG_NRF2_ARE_CIS_up): 15.59
SRbaseline (Tox21 assays [3]; TOX21_CAR_Antagonist): 27.45
cytotoxicity,median REPBPA,IC10 [1]: 2.12
IC10,Median (M) [1]: 3.31 × 10^–5 M
IC10, median [1]: 33.1 µM
EC50 (ERα [2]; ref Kojima et al 2019): 1900 nM
Efficacy % (ERα [2]; ref Pelch et al 2019): 45.40%
EC50 (ERα [2]; ref Reiniger et Oehlmann 2024): 932 nM
Efficacy % (ERα [2]; ref Reiniger et Oehlmann 2024): 1.06E+02%
EC10 (Tox21 assays [4]; [9]): 1.11e-06 M

COC(=O)C(c1ccc(O)cc1)c1ccc(O)cc1 [Bz, Methyl bis(4-hydroxyphenyl)acetate]
cytotoxicity,median REPBPA,IC10 [1]: 0.19
IC10,Median (M) [1]: 3.73 × 10^–4 M
IC10, median [1]: 373 µM
